In PubChem BioAssay (NCI) one finds GI50 and TGI data, which are given here for nine compounds.

Some test systems named below: UACC-62 melanoma; SNB-19 CNS; 786-0 renal; U251 CNS; HS 578T breast; HCC-2998 colon; NCI-H460 lung; SW-620 colon; LOX IMVI melanoma; SR leukemia.
What all share (assay): inhibition of tumour cell growth, NCI panel, 48 h

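Test compounds were applied to cells in 96-well plates for 48 hours at 5 doses. The concentration for 50% growth inhibition is given as GI50. TGI denotes the concentration required for complete inhibition of growth.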

Regarding `CCc1cccc(CC)c1NC(=O)c1ccn2c1CCc1cnc(Nc3ccc(N4CCN(C)CC4)cc3OC)nc1-2`, the GI50 in the assay on UACC-62 melanoma was 2.08 µM; in the assay on SNB-19 CNS it was 3.57 µM; in the assay with 786-0 renal it was 1.66 µM; in the assay with U251 CNS, 1.84 µM; in the assay with HS 578T breast it was 2.24 µM; in the assay on HCC-2998 colon, 2.28 µM. Also, the values for the GI50 in the assay on NCI-H460 lung and in the assay on SW-620 colon were 0.0814 µM and 1.11 µM, respectively. For the same compound, the TGI in the assay with UACC-62 melanoma stood at 4.52 µM; with SNB-19 CNS, 15.2 µM; in the assay with 786-0 renal, 3.84 µM; in the assay on U251 CNS it was 5.99 µM; with HS 578T breast it was 11 µM; with HCC-2998 colon, 8.63 µM. For the same compound, the TGI amounted to 10.7 µM in the assay with NCI-H460 lung and 5.94 µM in the assay on SW-620 colon.

With `C(=C\c1nc2ccccc2s1)/c1ccc(N2CCOCC2)s1`, the GI50 was 7.94 µM in the assay with UACC-62 melanoma; 51.4 µM in the assay on SNB-19 CNS; 38.4 µM with LOX IMVI melanoma; 33.7 µM in the assay on 786-0 renal; 58.9 µM in the assay on SR leukemia; 44.8 µM with U251 CNS. Also, the GI50 is 37 µM in the assay on HS 578T breast, 51.3 µM in the assay with NCI-H460 lung and > 100 µM in the assay on SW-620 colon. Moreover, the TGI with UACC-62 melanoma, in the assay on SNB-19 CNS, with LOX IMVI melanoma, with 786-0 renal, with SR leukemia and in the assay on U251 CNS was > 100 µM each time. Besides, the TGI with HS 578T breast, in the assay on NCI-H460 lung and with SW-620 colon was > 100 µM in each case.

`Cc1ccc(C)c(N2C(=O)C(=O)c3c(C)ccc(C)c32)c1`: the TGI in the assay with UACC-62 melanoma is 34.8 µM; in the assay on SNB-19 CNS, > 100 µM; in the assay on LOX IMVI melanoma it was 31.2 µM; in the assay with 786-0 renal it was > 100 µM; with SR leukemia, 37.7 µM; in the assay on U251 CNS, 35.2 µM. The TGI in the assay on HS 578T breast was 63.4 µM; in the assay with NCI-H460 lung, > 100 µM; in the assay on SW-620 colon, > 100 µM.

Turning to `C=CCCC(O)c1ccc(CCCCCCCCCCC)o1` (stereo not given), the GI50 with UACC-62 melanoma is 12.3 µM; in the assay with SNB-19 CNS, 18.8 µM; in the assay with LOX IMVI melanoma, 31.8 µM; in the assay on 786-0 renal, 16.3 µM; in the assay on U251 CNS, 17.5 µM; in the assay on HS 578T breast, 12.6 µM. The results for the GI50 with HCC-2998 colon, in the assay on NCI-H460 lung and in the assay with SW-620 colon were 18.4 µM, 28.9 µM and 17 µM, respectively. Further, the TGI in the assay with UACC-62 melanoma amounted to 25 µM; with SNB-19 CNS it was 35 µM; in the assay with LOX IMVI melanoma it was 47.2 µM; in the assay with 786-0 renal it was 30.5 µM; in the assay with U251 CNS, 31.5 µM; in the assay with HS 578T breast it was 30.2 µM. Besides, the TGI with HCC-2998 colon was 36.5 µM; in the assay on NCI-H460 lung it was > 100 µM; with SW-620 colon, 32.2 µM.

Regarding `O=C(O)CP(=O)(c1ccccc1)c1ccccc1.O=C(O)CP(=O)(c1ccccc1)c1ccccc1.[Cd]`, the GI50 in the assay with UACC-62 melanoma was 2.2 µM; in the assay with SNB-19 CNS, 48.1 µM; with 786-0 renal, 19.3 µM; with SR leukemia it was 13.6 µM; in the assay with U251 CNS, 14.3 µM; with HS 578T breast it was 19.4 µM. Moreover, the GI50 with NCI-H460 lung was 3.9 µM; with SW-620 colon, 19.6 µM. The TGI was 6.31 µM in the assay on UACC-62 melanoma; > 100 µM in the assay with SNB-19 CNS; 60 µM in the assay on 786-0 renal; 31.8 µM in the assay with SR leukemia; 28.9 µM with U251 CNS; > 100 µM with HS 578T breast. Moreover, the TGI in the assay with NCI-H460 lung is > 100 µM; in the assay on SW-620 colon it was 42.6 µM.

`O=C(OC(CNc1c(C(=O)c2ccccc2)c(=O)n(Cc2ccccc2)c(=O)n1Cc1ccccc1)CN1CCCCC1)c1ccccc1` (stereo not given): the GI50 is 20.7 µM in the assay on UACC-62 melanoma; 30.4 µM in the assay on SNB-19 CNS; 12.8 µM in the assay with LOX IMVI melanoma; 14.9 µM with 786-0 renal; 15.2 µM with U251 CNS; 42 µM with HS 578T breast. Besides, the GI50 is 12.1 µM in the assay on HCC-2998 colon, 21.1 µM with NCI-H460 lung and 35.7 µM with SW-620 colon. The TGI was 42.4 µM with UACC-62 melanoma; 83.5 µM with SNB-19 CNS; 25.4 µM in the assay with LOX IMVI melanoma; 29.4 µM in the assay on 786-0 renal; 29 µM in the assay on U251 CNS; > 100 µM in the assay with HS 578T breast. In addition, the TGI is 24.4 µM in the assay on HCC-2998 colon, 46.7 µM with NCI-H460 lung and > 100 µM with SW-620 colon.

With `COc1cc(CCNc2nc3cc(N)cc(N)c3nc2-c2ccccc2)cc(OC)c1`, the GI50 was 1.81 µM in the assay on UACC-62 melanoma; 5.92 µM with SNB-19 CNS; 1.65 µM in the assay with LOX IMVI melanoma; 2 µM in the assay with 786-0 renal; 0.354 µM in the assay with SR leukemia; 1.67 µM in the assay on U251 CNS. Besides, the results for the GI50 in the assay with HS 578T breast, with NCI-H460 lung and with SW-620 colon were 2.43 µM, 3.25 µM and 2.28 µM, respectively. For the same compound, the TGI was found to be 3.36 µM in the assay with UACC-62 melanoma; 18.6 µM in the assay with SNB-19 CNS; 3.17 µM in the assay with LOX IMVI melanoma; 3.99 µM in the assay with 786-0 renal; 2.22 µM in the assay with SR leukemia; 3.11 µM in the assay with U251 CNS. The figures for the TGI in the assay on HS 578T breast, with NCI-H460 lung and in the assay on SW-620 colon were 5.85 µM, 10.9 µM and 4.71 µM, respectively.

For the compound `Cc1ccc(C(CC(=O)c2ccccc2)C(C(=O)c2ccccc2)C(c2ccc(C)cc2)C2C(=O)NC(=S)NC2=O)cc1` (stereo not given), the GI50 was 19.5 µM with UACC-62 melanoma; 25.1 µM in the assay with SNB-19 CNS; 17 µM in the assay with LOX IMVI melanoma; 26.2 µM in the assay with 786-0 renal; 16.3 µM in the assay on U251 CNS; 21.7 µM with HS 578T breast. Besides, the GI50 in the assay on HCC-2998 colon was 8.68 µM; with NCI-H460 lung, 6.66 µM; in the assay with SW-620 colon, 19.4 µM. Besides, the TGI in the assay with UACC-62 melanoma, with SNB-19 CNS, with LOX IMVI melanoma, in the assay on 786-0 renal, with U251 CNS and with HS 578T breast was > 50 µM throughout. Further, the TGI in the assay with HCC-2998 colon, with NCI-H460 lung and in the assay with SW-620 colon was > 50 µM throughout.

On to `O=C(NCc1cccs1)OC1CC2CCC1C2` (stereo not given), for which the TGI with UACC-62 melanoma, in the assay on SNB-19 CNS, with LOX IMVI melanoma, in the assay with 786-0 renal, in the assay with SR leukemia and with U251 CNS was > 100 µM each time. In addition, the TGI in the assay on HS 578T breast, in the assay on NCI-H460 lung and in the assay on SW-620 colon was > 100 µM each time.
